Experimental findings from patent publication US6387406B1, “Copolymer compositions for oral delivery” (Supratek Pharma Inc., priority 1992, dated 2002) are described below.

≈ marks a conversion by molar mass, not a printed value. Where two headings read alike, the source gives them in different places.

The test system of data set [1] is SKVLB cell line (SK-resistant cells). Description: XTT cytotoxicity on SK-resistant cells. It counts as cell-based, human. As to conditions: for IC50: Homo sapiens.
Data set [2] deals with DBA/2 mice.
Data set [3] concerns neuroleptic effect as monitored behaviorally. Description: Minimum neuroleptic dose (MND). It counts as in vivo. The settings on record: control preparation. The method, then: The minimum neuroleptic dose (MND) was determined for each preparation. The minimum neuroleptic dose is defined as the minimum dose that caused a neuroleptic effect as monitored behaviorally. See, Kabanov et al., FEBS Lett. 258: 343-345, 1989. The MND for the copolymer-containing preparation was 0.02 mg/kg, while that of the control preparation was 2 mg/kg. The ratio of LD95/MND was 50 for the copolymer preparation and 5 for the control preparation.

The test system of data set [4] is DBA/2 mice. The settings on record: ±S.D.
For data set [5], the system named is SKOV3 line of transformed cells (SK cells). Description: Cytotoxicity on SK cells. It counts as cell-based, human. As to conditions: free drug.
Data set [6] concerns glucose level in plasma. Description: Insulin-induced hypoglycemia, s.c. or p.o. It counts as in vivo, Balb/c mice. As to the method:
Hypoglycemia induced by high doses of insulin in mice was used as biological response criteria. The drug activity was evaluated by analyzing the glucose level in plasma versus time following drug administration. Isotonic solutions of free insulin (Ins) or insulin formulated with POE-POP block copolymer (“SP1-Ins”) were given to Balb/c mice at the same doses either s.c. or p.o.
Female six-week-old Balb/c mice (six animals per time point) were administered s.c. or p.o. with sterile 100 μl per 20 g of body weight (5 ml/kg) of Insulin or SP1-Insulin solutions, and the same volumes of isotonic solution were given to the control group of animals. Both Insulin and SP1-Insulin injections contained 0.02 mg/ml of insulin with activity of 27.3 μ/mg.
The animals were sacrificed after various time intervals (0.5-6 hr; post-administration), plasma samples were collected, and glucose levels were analyzed by standard glucosoxidase-peroxidase method. The statistical significance was analyzed by the multiple range text of Duncan-Kramer.

For data set [7], the system named is BALB/c male mice. The settings on record: mouse, in vivo, ip.
Setting [8] is: control preparation, solution in RPMI 1640.
Setting [9] is: Example 10: 10% of LD95 i.p., stearoylated insulin-targeted micelles vs free drug.

In turn, `COc1cccc2c1C(=O)c1c(O)c3c(c(O)c1C2=O)C[C@@](O)(C(=O)CO)C[C@@H]3O[C@H]1C[C@H](N)[C@H](O)[C@H](C)O1` [Free doxorubicin, doxorubicin] had an IC50 in data set [1] of 60 µg/mL (≈ 110 µM).
In turn, `CCN1CCCC1CNC(=O)c1cc(S(N)(=O)=O)ccc1OC` (stereo not shown) [Sulpiride] came in with an LD95 in data set [2] (setting [8]) of 100 mg/kg body weight.
In the case of `CN1CCN(CCCN2c3ccccc3Sc3ccc(C(F)(F)F)cc32)CC1` [Trifluorperazine], the LD95 in data set [2] (setting [8]) is 10 mg/kg body weight. In addition, in data set [3], the “minimum neuroleptic dose (MND)” value was 2 mg/kg and the “ratio of LD95/MND” value was 5.
`O=C(CCCN1CCC(O)(c2ccc(Cl)cc2)CC1)c1ccc(F)cc1` [haloperidol] came in with an LD95 in data set [2] (i.p., without the Pluronic vehicle) of 75 mg/kg. The same molecule showed a Horizontal mobility in data set [4] (Example 7: 10% of LD95 i.p., antibody-targeted micelles vs free drug) of 204.6 ± 24%. In data set [4] (setting [9]), this molecule came in with a Grooming of 1656.4 ± 6.5% and a Horizontal mobility of 180.1 ± 26%.
Take `CN(Cc1cnc2nc(N)nc(N)c2n1)c1ccc(C(=O)N[C@@H](CCC(=O)O)C(=O)O)cc1` [methotrexate]: the IC50 in data set [1] (free drug, read-out: IC50 against SK-resistant cells) amounted to 1.34 µg/mL (≈ 2.95 µM).
Turning to `CO[C@@]12[C@H](COC(N)=O)C3=C(C(=O)C(C)=C(N)C3=O)N1C[C@@H]1N[C@@H]12` [mitomycin C], the “IC50 against SK cells” value in data set [5] stood at 0.320 µg/mL (≈ 0.957 µM). The “IC50 against SK-resistant cells” value in data set [1] (free drug) was determined as 1.120 µg/mL (≈ 3.35 µM).
Consider Insulin, for which the “changes in plasma glucose level” value in data set [6] (p.o., in words) is given as “only minor changes”. Besides, in data set [6] (s.c.), the “time to return to the normal glucose level” value was “about 6 hours”. For the same molecule, in data set [6] (s.c., 3 hours after administration), the “glucose level in plasma” value was “about 15 % of the normal level”.
Turning to Pluronic P85, the “MTD” value in data set [7] is 200 mg/kg.
